Reference: paper PMC12062478, “Screening herbal and natural product libraries to aid discovery of novel allosteric modulators of human P2X7” (Purinergic Signalling, 2024)
pEC50, pIC50: −log10 of the molar value. “And” between values parts separate entries of the source, which are not always exact repeats. Identical values can stand only once. Like-named read-outs stand apart in the source and are kept apart here. Numbered stars: 1 amine (or outer) side, 2 acyl side, 3 side chain; on linkers, the order of the positions; unused ones are H or OH. Bridge positions count the residues as written; N and C are the ends. Square brackets hold non-standard residues; d marks the D form. Peptide text beside a SMILES is read from it. I, II: the chains in the order shown. Actinocin(9to1) = Cc1c2oc3c(C)ccc(C(=O)[*:1])c3nc-2c(C(=O)[*:2])c(N)c1=O; dHica = CC(C)C[C@@H](O)C(=O)O; NMeV = CN[C@H](C(=O)O)C(C)C; NMeA = CN[C@@H](C)C(=O)O; βAla = NCCC(=O)O; Sar = CNCC(=O)O

Biological target: T1, P2X7 (Homo sapiens, UniProt Q99572)
T1 construct: expressed in transfected cells
T1 sequence (Q99572 1-595): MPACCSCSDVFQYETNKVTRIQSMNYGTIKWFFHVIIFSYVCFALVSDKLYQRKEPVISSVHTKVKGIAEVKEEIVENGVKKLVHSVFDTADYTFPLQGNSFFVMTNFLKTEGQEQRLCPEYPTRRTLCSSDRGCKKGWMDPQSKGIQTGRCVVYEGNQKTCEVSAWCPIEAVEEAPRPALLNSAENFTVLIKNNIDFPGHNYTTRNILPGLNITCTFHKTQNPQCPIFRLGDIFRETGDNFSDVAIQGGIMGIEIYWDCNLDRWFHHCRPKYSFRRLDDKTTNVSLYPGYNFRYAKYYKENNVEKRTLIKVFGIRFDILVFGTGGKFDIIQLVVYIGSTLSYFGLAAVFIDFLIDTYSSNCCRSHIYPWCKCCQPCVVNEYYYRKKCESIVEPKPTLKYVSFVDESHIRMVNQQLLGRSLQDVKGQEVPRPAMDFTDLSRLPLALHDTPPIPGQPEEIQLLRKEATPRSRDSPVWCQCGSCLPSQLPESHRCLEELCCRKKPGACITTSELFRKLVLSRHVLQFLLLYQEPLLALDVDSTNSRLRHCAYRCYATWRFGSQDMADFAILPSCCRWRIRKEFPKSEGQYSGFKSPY
Assay: ATP-induced YO-PRO-1 dye uptake in HEK-hP2X7 cells
Format: cell-based
Settings: for P2X7 response (% of control): compound 10 µM injected 60 s before ATP; for Effect on ATP-mediated YO-PRO-1 uptake: 10 µM, 10 min pre-incubation; for Effect on YO-PRO-1 uptake at high concentrations: > 30 µM, HEK-hP2X7; for Mechanism of action from ATP concentration–response curve: compound 10 µM
Protocol: HEK-hP2X7 or HEK-hP2X4 cells were plated at 2.5 × 10^4 cells per well (100 µL volume) the day before experiments into poly-D-lysine (Merck Millipore) coated 96-well plates (NUNC, Fisher Scientific #167-008). The membrane impermeant dye YO-PRO-1 iodide (Life Technologies, Fisher Scientific) was used at a final concentration of 2 µM in low divalent buffer (145 mM NaCl, 5 mM KCl, 0.2 mM CaCl2, 13 mM glucose, 10 mM HEPES, pH 7.3, osm 300–310). Media were removed from the plate, and 90 µL of YO-PRO-1 buffer was added per well. Plates were warmed to 37 °C for 5 min before recording. Data was acquired on a Flexstation 3 plate reader (Molecular Devices) using excitation wavelength 490 nm, emission wavelength 520 nm, and six reads per well (PMT medium). […] […] Pipette height was set to 80 µL and the rate of injection was 4.
YO-PRO-1 dye uptake assay data is plotted as a percentage of control where control responses are measured in the absence of plant extract. Cell viability data is plotted as a percentage of control or background-corrected fluorescence data. Concentration–response graphs were plotted using GraphPad Prism v6 with a non-linear regression fit (variable slope). IC50 values were generated from collated datasets from a minimum of three independent experiments. Statistical differences were determined by one-way ANOVA statistical tests performed using GraphPad Prism v6 with Dunnett’s multiple comparison post hoc test. Significance was taken as P ≤ 0.05.
We acquired a natural product library (Set IV) containing 419 compounds from NCI DTP and tested these on P2X7 responses using a YO-PRO-1 dye uptake in HEK293 cells stably expressing human P2X7 (HEK-hP2X7). […] This allowed us to assess for any immediate effect of the injected compound, and secondly, it allowed for any potential negative modulators to be pre-incubated with P2X7.

[1] = HEK-hP2X7, 10 min pre-treatment, ATP 1 mM, read-out: IC50 value (95% CI)
[2] = screen for potential negative allosteric modulators
[3] = HEK-hP2X7, NCI Natural Product Set IV compounds, Fig. 1F, read-out: IC50 (dose inhibition experiments)

SMILES	P2X7 response (% of control) (screen for PAM activity)	P2X7 response (% of control) [2]	also measured
Nc1nc(=O)c2c([nH]1)NCC(CNc1ccc(C(=O)N[C@@H](CCC(=O)O)C(=O)O)cc1)N2C=O (mixture of isomers) [Folinic acid, reference compound]	160.00 % of control		
Nc1ncnc2c1ncn2[C@@H]1O[C@H](COP(=O)(O)OP(=O)(O)OP(=O)(O)O)[C@@H](O)[C@H]1O [ATP, reference compound]			pEC50 (ATP with vehicle (DMSO), no modulator): 3.88 and 3.96
O=C1CSC(=O)N1C(CCc1ccncc1)COc1ccc(-c2cccc([N+](=O)[O-])c2)cc1 (centres unmarked) [AZ11645373, reference compound]			pIC50 [1]: 6.82
COc1cc(Cc2nccc3cc(OC)c(OC)cc23)c(C(C)=O)cc1OC [Acetopapaverine]		34.92 % of control	
COc1cc2c(c3c1c(=O)c1ccccc1n3C)C=CC(C)(C)O2 [Acronine]		1.05 % of control	Effect on ATP-mediated YO-PRO-1 uptake (ATP 1 mM): able to reduce ATP-mediated YO-PRO-1 uptake
Cc1c2oc3c(C)ccc(C(=O)N[C@@H]4C(=O)N[C@H](C(C)C)C(=O)N5CCC[C@H]5C(=O)N(C)CC(=O)N(C)[C@@H](C(C)C)C(=O)O[C@@H]4C)c3nc-2c(C(=O)N[C@@H]2C(=O)N[C@H](C(C)C)C(=O)N3CCC[C@H]3C(=O)N(C)CC(=O)N(C)[C@@H](C(C)C)C(=O)O[C@@H]2C)c(N)c1=O [Actinomycin] (I: T[dV]P[Sar][NMeV] / II: T[dV]P[Sar][NMeV]; ester I:1-I:C, II:1-II:C; linker I:N-II:N via Actinocin(9to1))	188.44 % of control		
COc1cc([C@@H]2c3cc4c(cc3C[C@H]3COC(=O)[C@@H]32)OCO4)cc(OC)c1OC [Anthricin]		30.94 % of control	
NC(=O)C#CC(N)=O [Aquamycin]		15.18 % of control	
CC(=O)O[C@H]1C(=O)[C@@]2(C)[C@H]([C@H](OC(=O)c3ccccc3)[C@]3(O)C[C@H](O)C(C)=C1C3(C)C)[C@]1(OC(C)=O)CO[C@@H]1C[C@@H]2O [Baccatin III]	136.25 % of control		
COc1c2ccoc2cc2oc(=O)ccc12 [Bergapten]			Effect on YO-PRO-1 uptake at high concentrations: reduction of YO-PRO-1 uptake in hP2X7 cells at high concentrations
C[C@@H]1C[C@H](C)C[C@H](C)[C@@H](O)CC(=O)O[C@H]([C@@H]2CCC[C@H]2C(=O)O)C/C=C/C=C(/C#N)[C@H](O)[C@@H](C)C1 [Borrelidin]		42.93 % of control	
C[C@H]1Oc2cc3c(-c4c(O)cc(O)c5c(O)c6c(cc45)O[C@H](C)[C@@H](C)C6=O)c(O)cc(O)c3c(O)c2C(=O)[C@@H]1C [Chaetochromin A]		12.08 % of control	
CC[C@H](C)C(=O)O[C@H]1CCC=C2C=C[C@H](C)[C@H](CC[C@@H](O)C[C@@H](O)CC(=O)O)[C@H]21 [Compactin]	139.71 % of control		
CC1(C)CCC[C@]2(C)C3=C(CC[C@@H]12)C(=O)OC3 [Confertifolin]		9.72 % of control	Effect on ATP-mediated YO-PRO-1 uptake (ATP 1 mM): able to reduce ATP-mediated YO-PRO-1 uptake; pIC50 [3]: 5.41; Mechanism of action from ATP concentration–response curve: potential non-competitive mechanism of action
C/C=C/C(=O)O [Crotonic acid]	142.15 % of control		
COc1cc(/C=C/C(=O)CC(=O)/C=C/c2ccc(O)c(OC)c2)ccc1O [Curcumin]	144.58 % of control		
CC[C@H](C)[C@@H]1NC(=O)[C@@H]2CCCN2C(=O)[C@@H](CC(C)C)OC(=O)CCNC(=O)[C@H](C)N(C)C(=O)[C@H](C(C)C)N(C)C1=O [Destrusin B] (cyclo([dHica]PI[NMeV][NMeA][βAla]))		46.65 % of control	
O=C(O)c1cc(O)c(O)c(OC(=O)c2cc(O)c(O)c(O)c2)c1 [Digallic acid]		0 % of control	Effect on ATP-mediated YO-PRO-1 uptake (ATP 1 mM): able to reduce ATP-mediated YO-PRO-1 uptake; pIC50 [3]: 5.39; Mechanism of action from ATP concentration–response curve: potential non-competitive mechanism of action
O=C(O[C@@H]1Cc2c(O)cc(O)cc2O[C@@H]1c1ccc(O)c(O)c1)c1cc(O)c(O)c(O)c1 [ECG, epicatechin gallate]			pIC50 (IC50 value (95% CI)): 5.30
O=c1c(-c2ccc(O)cc2)coc2cc(O)cc(O)c12 [Genistein]			Effect on YO-PRO-1 uptake at high concentrations: reduction of YO-PRO-1 uptake in hP2X7 cells at high concentrations; pIC50 (IC50 value (95% CI)): 4.30

SMILES	P2X7 response (% of control) (screen for PAM activity)	P2X7 response (% of control) [2]	also measured
COc1ccc2c(c1OC)CN1CCc3cc4c(cc3[C@@H]1C2)OCO4 [Hydroberberine]		9.75 % of control	
CC(=O)OC(C)C1C2=C(C(=O)C[C@]1(C)O)C(=O)c1c(ccc(-c3ccc4c(c3O)C(=O)C3=C(C4=O)C(C(C)OC(C)=O)[C@@](C)(O)CC3=O)c1O)C2=O (some centres unmarked) [Julimycin II]	180.28 % of control		
O=c1c(O)c(-c2ccc(O)cc2)oc2cc(O)cc(O)c12 [Kampferol, kaempferol]			pIC50 [1]: 4.40
CCCCC[C@@H](O)[C@H]1C(=O)O[C@H](C)[C@@H](O)/C=C/C=C/C=C/C=C/C=C(\C)[C@@H](O)[C@H](O)[C@H](O)C[C@H](O)C[C@H](O)C[C@H](O)C[C@H](O)C[C@@H]1O [Lagosin]	148.84 % of control		
CC(=O)CCC(=O)O [Levullinic acid]	134.82 % of control		
Nc1ncnc2c1ncn2C1OCC(O)C1O (centres unmarked) [MLS003170979]	129.73 % of control		
CCCn1cc2c3c(cccc31)[C@H]1C[C@@H](C)CN(C)[C@@H]1C2.O=C(O)C(O)C(O)C(=O)O [NSC332294]		29.09 % of control	
COc1c(OC)c2c3c(nccc3c1OC)C(=O)c1cc(O)ccc1-2 [NSC785143]	149.00 % of control		
c1cc2c(c3c1C[C@@H]1NCCc4cc5c(c-3c41)OCO5)OCO2 [NSC785157]	152.97 % of control		
COc1cc2c(cc1O)C[C@H]1c3c(cc(OC)c(O)c3-2)CCN1C [NSC785158]		49.59 % of control	
COc1cc2c3c(c1O)-c1cc(O)ccc1C[C@H]3N(C)CC2 [NSC785167]	125.18 % of control		
COc1cc2c3c(c1O)Oc1ccc(cc1)C[C@@H]1c4c(cc(OC)c(OC)c4Oc4ccc(cc4)C[C@@H]3N(C)CC2)CCN1C [NSC785173]	148.84 % of control		
COc1cc2c3c(c1O)-c1cc(N(Cc4ccccc4)Cc4ccccc4)ccc1CC3N(C)CC2 (centres unmarked) [NSC785176]	159.37 % of control		
COc1cc2c3c(c1O)-c1cc(O)ccc1CC3N(C)CC2 (centres unmarked) [NSC785186]	146.91 % of control		
COc1ccc2c(c1OC)-c1c(OC)c(OC)cc3c1[C@H](C2)NCC3 [NSC785187]	127.21 % of control		
COC1C(C)OC(OC2CC(C)(O)Cc3cc4c(c(O)c32)C(=O)c2c(O)cc3c(c2C4=O)OC2OC3(C)C(O)C(N(C)C)C2O)C(OC)C1(C)OC (centres unmarked) [Nogamycin]	155.77 % of control		
CC(=O)O[C@H]1C[C@]2(O)[C@@H]3CC[C@@H]4C[C@@H](O)CC[C@]4(C)[C@H]3CC[C@]2(C)[C@H]1C1=CC(=O)OC1 [Oleandrogenin]		42.33 % of control	
CCCCCCCCCCCCCCCC(=O)O [Palmitic acid]			Effect on YO-PRO-1 uptake at high concentrations: reduction of YO-PRO-1 uptake in hP2X7 cells at high concentrations
CC(=O)CCCCn1c(=O)c2c(ncn2C)n(C)c1=O [Pentoxifylline, reference compound]	140.48 % of control		
